Laboratory results from publication PMC12794055, “High-Throughput Cardiac Hypertrophy Phenotyping Supports Lead Optimization of GRK5 Inhibitors” (ACS Medicinal Chemistry Letters, 2025).
Entries after “also recorded” stand apart in the source; their conditions may differ. Where no end group is shown, it is not given here.

Columns and labels:
GRK2 = conditions: read-out: GRK2 IC50; biochemical IC50, radiometric kinase inhibition assay; ref 40 (citation marks lost in text); cited from earlier work
[1] = tested on: mixed cardiac cells (CMs and non-CMs); conditions: for toxicity, in words: nuclei counts of CMs and non-CMs
mixed cardiac cells [2] = experiment: High-content hypertrophy assay (Hypertrophy Score), PE-LIF-stimulated mixed cardiac cells treated with inhibitors; conditions: 96 h; for antihypertrophic effect (Hypertrophy Score), in words: comparison at 8 μM
purified CMs [3] = experiment: qPCR of hypertrophic gene expression (Nppa, Nppb) in purified CMs; assay type: cell-based, rat; conditions: 100 µM PE + 50 ng/ml LIF, 24 h
mixed cardiac cells [4] = experiment: Profiling of hypertrophic stimulants in mixed cardiac cell culture (Hypertrophy Score); conditions: stimulants at three concentrations
purified CMs [5] = experiment: Profiling of hypertrophic stimulants in purified CM culture (Hypertrophy Score)

Compound | antihypertrophic effect (Hypertrophy Score), in words (mixed cardiac cells [2]; PE-LIF (20 μM, 50 ng/mL)) | hypertrophic response (Hypertrophy Score), in words (mixed cardiac cells [4]) | also measured
Cc1[nH]c(/C=C2\C(=O)Nc3ccc(C(=O)N[C@H](C)c4ccc(F)cc4)cc32)c(C)c1NC(=O)C(=O)c1ccco1 [Compound 3] | partially reduced the Hypertrophy Score; also recorded: surprisingly poor cellular efficacy | – | IC50 (GRK2): […]; reduction in non-CM numbers (antiproliferative activity), in words ([1]; non-CM nuclei counts, 96 h): most pronounced
Cc1[nH]c(/C=C2\C(=O)Nc3ccc(C(=O)N[C@H](C)c4ccc(F)cc4)cc32)c(C)c1NC(=O)[C@@H](O)c1ccco1 [Compound 4a] | most potent cellular inhibitor; also recorded: clear cellular effects | – | PE-LIF-induced upregulation of Nppa and Nppb, in words (purified CMs [3]): prevented PE-LIF-induced upregulation of Nppa and Nppb; concentration from which PE-LIF-induced Hypertrophy Score is significantly reduced (mixed cardiac cells [2]; PE-LIF (20 μM, 50 ng/mL)): ≥ 3 µM; IC50 (mixed cardiac cells [2]; Rattus norvegicus, read-out: cellular IC50 (antihypertrophic effects)): 4.7 µM
Cc1[nH]c(/C=C2\C(=O)Nc3ccc(C(=O)N[C@H](C)c4ccc(F)cc4)cc32)c(C)c1NC(=O)[C@H](O)c1ccco1 [Compound 4b] | no effect at any concentration; also recorded: lacked cellular efficacy; also recorded: no antihypertrophic efficacy | – | reduction in non-CM numbers (antiproliferative activity), in words ([1]; non-CM nuclei counts, 96 h): absent
Cc1[nH]c(/C=C2\C(=O)Nc3ccc(C(=O)N[C@H](C)c4ccc(F)cc4)cc32)c(C)c1NC(=O)c1ccoc1 [Compound 5b] | nor significant antihypertrophic effects; also recorded: surprisingly poor cellular efficacy | – | toxicity, in words [1]: neither toxicity
Cc1nc(C(=O)Nc2c(C)[nH]c(/C=C3\C(=O)Nc4ccc(C(=O)N[C@H](C)c5ccc(F)cc5)cc43)c2C)c(C)s1 [Compound 5d] | appeared to reduce hypertrophy | – | concentration at which CMs are affected ([1]; CM nuclei counts, 96 h): ≥ 2000 nM; concentration from which non-CM numbers are reduced ([1]; non-CM nuclei counts, 96 h): ≥ 500 nM; toxicity, in words [1]: excluded due to toxicity
Cc1[nH]c(/C=C2\C(=O)Nc3ccc(C(=O)N[C@H](C)c4ccc(F)cc4)cc32)c(C)c1NC(=O)C1CCOCC1 [Compound 5i] | partially reduced the Hypertrophy Score | – | –
Cc1[nH]c(/C=C2\C(=O)Nc3ccc(C(=O)N[C@H](C)c4ccc(F)cc4)cc32)c(C)c1NC(=O)[C@H]1CCC(=O)O1 [Compound 5k] | nor significant antihypertrophic effects; also recorded: lacked cellular efficacy | – | toxicity, in words [1]: neither toxicity
Cc1nc2c(C(=O)Nc3c(C)[nH]c(/C=C4\C(=O)Nc5ccc(C(=O)N[C@H](C)c6ccc(F)cc6)cc54)c3C)cccc2[nH]1 [Compound 5m] | partially reduced the Hypertrophy Score | – | –
NC[C@H](O)c1ccc(O)c(O)c1 [NE, norepinephrine] | – | weaker response than PE alone | –
CNC[C@H](O)c1cccc(O)c1 [PE, phenylephrine] | – | strongest response | –
endothelin-1 (CSCSSLMDKECVYFCHLDIIW; not fully specified (bridges); ends and bridges not checked; UniProt P05305 53-73, looked up) [ET-1] | – | robust hypertrophic effects | –
leukemia inhibitory factor [LIF] | – | little to no effect | hypertrophic response (Hypertrophy Score), in words (purified CMs [5]): significantly increased the Hypertrophy Score
transforming growth factor beta [TGFβ] | – | little to no effect | –
